# Measured values taken from ChEMBL document CHEMBL1275440, “In vitro activity of telavancin against resistant gram-positive bacteria” (2008).
# Calls of active or inactive are those of the source. The calls are words filed in the database; no cut-off is given here.
# What was measured:
# Type in all cases: functional
# [1] = test system: Staphylococcus aureus; assay: Antibacterial activity against methicillin resistant Staphylococcus aureus MED 1805 bloodstream isolate assessed as bacterial count at 4 ug/ml after 2 hrs by time-kill assay
# [2] = test system: Staphylococcus epidermidis; assay: Antibacterial activity against methicillin resistant Staphylococcus epidermidis ATCC 35984 assessed as bacterial count at 8 ug/ml after 2 hrs by time-kill assay
# [3] = test system: Enterococcus faecalis; assay: Antibacterial activity against Enterococcus faecalis ATCC 51575 assessed as bacterial count at 4 ug/ml after 4 hrs by time-kill assay
# [4] = test system: Streptococcus pyogenes; assay: Antibacterial activity against Streptococcus pyogenes MED 2040 assessed as bacterial count at 2 ug/ml after 4 hrs by time-kill assay
# [5] = test system: Streptococcus pyogenes; assay: Antibacterial activity against Streptococcus pyogenes MED 2040 assessed as bacterial count at 0.5 ug/ml after 8 hrs by time-kill assay
# [6] = test system: Staphylococcus epidermidis; assay: Antibacterial activity against methicillin resistant Staphylococcus epidermidis ATCC 35984 assessed as bacterial count at 8 ug/ml after 8 hrs by time-kill assay
# [7] = test system: Staphylococcus aureus; assay: Antibacterial activity against methicillin resistant Staphylococcus aureus MED 2028 osteomyelitis isolate assessed as bacterial count at 1 ug/ml after 4 hrs by time-kill assay
# [8] = test system: Streptococcus pneumoniae; assay: Antibacterial activity against multidrug resistant Streptococcus pneumoniae MED 1090 assessed as bacterial count at 0.03 ug/ml after 8 hrs by time-kill assay
# [9] = test system: Staphylococcus aureus; assay: Antibacterial activity against methicillin resistant Staphylococcus aureus MED 2028 osteomyelitis isolate assessed as bacterial count at 4 ug/ml after 8 hrs by time-kill assay
# [10] = test system: Streptococcus pyogenes; assay: Antibacterial activity against Streptococcus pyogenes MED 2040 assessed as bacterial count at 0.5 ug/ml after 24 hrs by time-kill assay
# [11] = test system: Streptococcus pneumoniae; assay: Antibacterial activity against penicillin resistant Streptococcus pneumoniae clinical isolate by broth microdilution method
# [12] = test system: Streptococcus pneumoniae; assay: Antibacterial activity against multidrug resistant Streptococcus pneumoniae MED 1090 assessed as bacterial count at […] after 4 hrs by time-kill assay
# [13] = test system: Streptococcus pneumoniae; assay: Antibacterial activity against multidrug resistant Streptococcus pneumoniae MED 1090 assessed as bacterial count at […] after 24 hrs by time-kill assay
# [14] = test system: Streptococcus agalactiae; assay: Antibacterial activity against Streptococcus agalactiae MED 2038 assessed as bacterial count at 0.5 ug/ml after 4 hrs by time-kill assay
# [15] = test system: Staphylococcus aureus; assay: Antibacterial activity against methicillin resistant Staphylococcus aureus MED 1805 bloodstream isolate assessed as bacterial count at 16 ug/ml after 24 hrs by time-kill assay
# [16] = Antibacterial activity against methicillin resistant coagulase-negative Staphylococcus hominis subsp. novobiosepticus clinical isolate by broth microdilution method
# [17] = test system: Streptococcus agalactiae; assay: (§1) Antibacterial activity against Streptococcus agalactiae MED 2038 assessed as bacterial count at […] after 4 hrs by time-kill assay
# [18] = test system: Staphylococcus aureus; assay: Antibacterial activity against methicillin resistant Staphylococcus aureus MED 2028 osteomyelitis isolate assessed as bacterial count at 1 ug/ml after 24 hrs by time-kill assay
# [19] = test system: Enterococcus faecalis; assay: Antibacterial activity against Enterococcus faecalis ATCC 51575 assessed as bacterial count at 2 ug/ml after 4 hrs by time-kill assay
# [20] = test system: Enterococcus faecalis; assay: Antibacterial activity against Enterococcus faecalis ATCC 51575 assessed as bacterial count at 8 ug/ml after 8 hrs by time-kill assay
# [21] = test system: Staphylococcus capitis; assay: Antibacterial activity against methicillin resistant coagulase-negative Staphylococcus capitis clinical isolate by broth microdilution method
# [22] = test system: Staphylococcus epidermidis; assay: Antibacterial activity against methicillin resistant Staphylococcus epidermidis ATCC 35984 assessed as bacterial count at 16 ug/ml after 4 hrs by time-kill assay
# [23] = test system: Streptococcus pneumoniae; assay: Antibacterial activity against multidrug resistant Streptococcus pneumoniae MED 1090 assessed as bacterial count at 8 ug/ml after 8 hrs by time-kill assay
# [24] = test system: Staphylococcus aureus; assay: Antibacterial activity against methicillin resistant Staphylococcus aureus MED 2028 osteomyelitis isolate assessed as bacterial count at 2 ug/ml after 2 hrs by time-kill assay
# [25] = test system: Streptococcus agalactiae; assay: Antibacterial activity against Streptococcus agalactiae MED 2038 assessed as bacterial count at 8 ug/ml after 24 hrs by time-kill assay
# [26] = test system: Streptococcus pyogenes; assay: Antibacterial activity against Streptococcus pyogenes MED 2040 assessed as bacterial count at […] after 2 hrs by time-kill assay
# [27] = test system: Enterococcus faecalis; assay: Antibacterial activity against Enterococcus faecalis ATCC 51575 by broth microdilution method
# [28] = test system: Enterococcus faecalis; assay: Antibacterial activity against Enterococcus faecalis ATCC 51575 assessed as bacterial count at 8 ug/ml after 24 hrs by time-kill assay
# [29] = test system: Enterococcus faecalis; assay: Antibacterial activity against Enterococcus faecalis ATCC 51575 assessed as bacterial count at 4 ug/ml after 24 hrs by time-kill assay
# [30] = test system: Staphylococcus aureus; assay: Antibacterial activity against methicillin resistant Staphylococcus aureus MED 2028 osteomyelitis isolate assessed as bacterial count at 16 ug/ml after 24 hr by time-kill assay
# [31] = test system: Staphylococcus epidermidis; assay: Antibacterial activity against methicillin resistant Staphylococcus epidermidis ATCC 35984 assessed as bacterial count at 2 ug/ml after 24 hrs by time-kill assay
# [32] = test system: Streptococcus pneumoniae; assay: Antibacterial activity against multidrug resistant Streptococcus pneumoniae MED 1090 assessed as bacterial count at 2 ug/ml after 8 hrs by time-kill assay
# [33] = test system: Streptococcus oralis; assay: Antibacterial activity against Streptococcus oralis clinical isolate by broth microdilution method
# [34] = test system: Enterococcus faecalis; assay: Antibacterial activity against Enterococcus faecalis ATCC 51575 assessed as bacterial count at 2 ug/ml after 24 hrs by time-kill assay
# [35] = test system: Streptococcus agalactiae; assay: Antibacterial activity against Streptococcus agalactiae MED 2038 assessed as bacterial count at 0.5 ug/ml after 24 hrs by time-kill assay
# [36] = test system: Enterococcus faecium; assay: Antibacterial activity against vancomycin resistant Enterococcus faecium VanB clinical isolate by broth microdilution method
# [37] = test system: Streptococcus agalactiae; assay: Antibacterial activity against Streptococcus agalactiae MED 2038 assessed as bacterial count at 8 ug/ml after 8 hrs by time-kill assay
# [38] = test system: Staphylococcus aureus; assay: Antibacterial activity against methicillin resistant Staphylococcus aureus MED 2028 osteomyelitis isolate assessed as bacterial count at 2 ug/ml after 4 hrs by time-kill assay
# [39] = test system: Staphylococcus aureus; assay: Antibacterial activity against methicillin resistant Staphylococcus aureus MED 2028 osteomyelitis isolate assessed as bacterial count at 4 ug/ml after 4 hrs by time-kill assay
# [40] = test system: Streptococcus pyogenes; assay: Antibacterial activity against Streptococcus pyogenes MED 2040 assessed as bacterial count at 8 ug/ml after 8 hrs by time-kill assay
# [41] = test system: Streptococcus agalactiae; assay: as §1; remark: listed apart in the source
# [42] = test system: Streptococcus pneumoniae; assay: Antibacterial activity against multidrug resistant Streptococcus pneumoniae MED 1090 assessed as bacterial count at 2 ug/ml after 2 hrs by time-kill assay
# [43] = test system: Streptococcus pneumoniae; assay: Antibacterial activity against multidrug resistant Streptococcus pneumoniae MED 1090 assessed as bacterial count at 2 ug/ml after 24 hrs by time-kill assay
# [44] = test system: Streptococcus agalactiae; assay: Antibacterial activity against Streptococcus agalactiae MED 2038 assessed as bacterial count at […] after 2 hrs by time-kill assay
structure (smiles),measurement,setting,value
CCCCCCCCCCNCCN[C@@]1(C)C[C@H](O[C@H]2[C@H](Oc3c4cc5cc3Oc3ccc(cc3Cl)[C@@H](O)[C@@H](NC(=O)[C@@H](CC(C)C)NC)C(=O)N[C@@H](CC(N)=O)C(=O)N[C@H]5C(=O)N[C@H]3C(=O)N[C@H](C(=O)N[C@H](C(=O)O)c5cc(O)c(CNCP(=O)(O)O)c(O)c5-c5cc3ccc5O)[C@H](O)c3ccc(c(Cl)c3)O4)O[C@H](CO)[C@@H](O)[C@@H]2O)O[C@@H](C)[C@H]1O [TELAVANCIN],log10CFU/ml,[1],1.2
same,log10CFU/ml,[2],0.5
same,log10CFU/ml,[3],0.5
same,log10CFU/ml,[4],2.7
same,log10CFU/ml,[5],2.3
same,log10CFU/ml,[6],3.3
same,log10CFU/ml,[7],1.3
same,log10CFU/ml,[8],3.4
same,log10CFU/ml,[9],3.4
same,log10CFU/ml,[10],3.1
same,MIC50,[11],0.015 µg/mL
same,MIC90,[11],0.03 µg/mL
same,log10CFU/ml,[12],1.9
same,log10CFU/ml,[13],3.4
same,log10CFU/ml,[14],1
same,log10CFU/ml,[15],3.3
same,MIC50,[16],0.5 µg/mL
same,MIC90,[16],1 µg/mL
same,log10CFU/ml,[17],0.8
same,log10CFU/ml,[18],2.1
same,log10CFU/ml,[19],0.5
same,log10CFU/ml,[20],0.5
same,MIC50,[21],0.5 µg/mL
same,MIC90,[21],1 µg/mL
same,log10CFU/ml,[22],3.2
same,log10CFU/ml,[23],2.6
same,log10CFU/ml,[24],0.6
same,log10CFU/ml,[25],3.7
same,log10CFU/ml,[26],0.7
same,MIC,[27],1 µg/mL
same,log10CFU/ml,[28],1
same,log10CFU/ml,[29],1.2
same,log10CFU/ml,[30],3.4
same,log10CFU/ml,[31],3.1
same,log10CFU/ml,[32],3.4
same,MIC,[33],0.015 µg/mL
same,MIC50,[33],inactive
same,MIC90,[33],inactive
same,log10CFU/ml,[34],0.8
same,log10CFU/ml,[35],3.6
same,MIC50,[36],0.5 µg/mL
same,MIC90,[36],2 µg/mL
same,log10CFU/ml,[37],1.8
same,log10CFU/ml,[38],1.6
same,log10CFU/ml,[39],1.7
same,log10CFU/ml,[40],2.7
same,log10CFU/ml,[41],0.9
same,log10CFU/ml,[42],1.8
same,log10CFU/ml,[43],3.4
same,log10CFU/ml,[44],1
